Data from paper PMC11642044 (International Journal of Molecular Sciences, 2024).
Where no end group is shown, it is not given here.

Legend:
primary astrocytes = experiment: Intracellular Ca2+ mobilization by Gq-coupled receptor agonists (FLIPR, Fluo-4), primary cortical astrocytes; format: cell-based, mouse; details: n = 4
Procedure: HEK293, U87-MG, 1321N1, SK-N-SH, and SK-N-MC cells were cultured in MEM supplemented with 10% (vol/vol) fetal bovine serum (FBS), 50 U/mL penicillin, and 50 μg/mL streptomycin. Primary astrocyte cultures were prepared from the cerebral cortexes of neonatal mice (P2). The cerebral hemispheres were isolated and transferred to ice-cold Hank’s buffer, and the meninges were carefully removed. Tissues were then minced into approximately 1 mm pieces, triturated, filtered through a 60 µm nylon screen, and collected by centrifugation at approximately 3000× g for 5 min. The cell pellets were dispersed with a pipette and resuspended in a medium containing 10% (vol/vol) FBS in low-glucose Dulbecco’s modified Eagle’s medium. After trituration, the cells were filtered through a 10 µm screen and then plated into 6-well plates at a density of 3 × 10^5 cells/mL and cultured for about 10 days. The medium was replaced twice per week. Dibutyryl cyclic adenosine monophosphate (DBcAMP; 0.15 mM, Sigma, St Louis, MO, USA) was added to induce differentiation when the cells were grown to 95% confluence. Primary mouse cortical neuronal cultures were obtained from E16 ICR mouse embryos. Briefly, cerebral cortices were removed from mouse embryos and mechanically dissociated in PBS with glucose (18 mM). Neurons were then seeded onto poly-L-lysine (1 mg/mL)-coated 96-well plates at 5 × 10^4 cells/well in a B27 Plus Neuronal culture system (Thermo Fisher Scientific), supplemented with 2 mM glutamine, 5 μM mercaptoethanol, 100 U/mL penicillin and 100 μg/mL streptomycin. The cultured neurons were maintained in a humidified incubator at 37 °C with 5% CO2 for 7 days prior to use.
(§1) Cells were seeded in 96-well plates (clear bottom and black wall) at 2.5 × 10^4 cells per well on the day before assay. The cells (~80–100% confluence) were then washed with Hank’s balanced salt solution (HBSS) and aspirated, followed by addition of 100 μL of FLIPR labeling dye (containing Fluo-4 and probenecid in HBSS) to each well before incubation at 37 °C for 1 h. Finally, the 96-well plate containing the labeled cells was transferred to the FLIPR (Molecular Devices, San Jose, CA, USA), and 50 μL of HBSS (with or without agonists) was added to each well. The fluorescent signals that reflect the intracellular Ca^2+ transients were monitored by an excitation wavelength of 488 nm, and detection was undertaken with an emission wavelength from 510 to 570 nm for 3 min upon the drug treatments, as described previously.

U87-MG cells = experiment: Intracellular Ca2+ mobilization by Gq-coupled receptor agonists (FLIPR, Fluo-4), U87-MG; format: cell-based, human; details: U87-MG, FLIPR, Fluo-4, 3 min, n = 3
Procedure: as §1

1321-N1 cells = experiment: Intracellular Ca2+ mobilization by Gq-coupled receptor agonists (FLIPR, Fluo-4), 1321-N1; format: cell-based, human; details: 1321-N1, FLIPR, Fluo-4, 3 min, n = 3
Procedure: as §1

[1] = system: melatonin MT1 receptor with Gα16; format: cell-based, human
Procedure: Supplementary Methods (for Supplementary Figures) […]
(Merck Millipore, MA, USA). HEK293 cells (80-100% confluence in 6-well plates) stably expressing MT1R alone or together with Gα16 as described previously [Ref. 21] were treated with 1 μM of melatonin (Tocris Bioscience, Minneapolis, MN) in 1 mL of MEM per well without FBS for 24 h. The resulting conditioned media were collected in 1.5 mL microcentrifuge tubes, with the presence of secretory LIF and IL-6 quantified by ELISA assays (Abcam, Cambridge, UK) according to the manufacturer’s […]

[2] = system: B2R-mediated LIF secretion in U87-MG cells; experiment: Inhibition of bradykinin-induced LIF production (ELISA), U87-MG; format: cell-based, human; details: 10 μM inhibitor, 30 min pre-treatment, bradykinin 1 µM, 24 h
Procedure: Conditioned media were analyzed for the presence of multiple cytokines by using the cytokine multiplex assay kits (Merck Millipore, MA, USA) as previously described. Briefly, a bead mixture with various capture antibodies (50 μL) was added to a 96-well microtiter plate, followed by 50 μL of cytokine standard mix or test sample and then 25 μL of a biotinylated detection antibody mixture. The mixtures were incubated for 30 min at 25 °C with gentle shaking. Unbound antibodies were removed by three gentle washes. Finally, 50 μL of streptavidin–PE solution was added and incubated for another 30 min with gentle shaking. The detection beads were then washed again and resuspended in 120 μL of reading buffer. The Bio-Plex™ 200 system (Bio-Rad Laboratories, Hercules, CA, USA) with the Bio-Plex manager software (version 5.0) was utilized for signal detection and data analysis. Curve fitting was applied to each standard curve according to the manufacturer’s manual and sample concentrations were interpolated from the standard curves. Individual detections for LIF and IL-6 were performed using the corresponding ELISA kits from Abcam (Cambridge, UK) according to the manufacturer’s instructions.
The resulting Ca^2+ signal profiles were monitored by FLIPR for 3 min.

[3] = system: STAT3 in primary mouse astrocytes; experiment: STAT3 phosphorylation by direct application of cytokine, primary astrocytes; format: cell-based; details: 0–100 ng/mL, 15 min, n = 3
Procedure: To determine if the experimental cells were readily responsive to LIF and IL-6, SK-N-MC cells, mouse primary neurons and primary astrocytes (80–100% confluence in 12-well plates) were serum-starved for 6 h, followed by treatment of indicated concentrations (0–100 ng/mL) of LIF and IL-6 for 15 min. The subsequent cell lysates were subjected to SDS-PAGE and Western blot with specific antibodies to detect stimulatory phosphorylated forms and the total amounts of STAT3.
SDS-PAGE and Western blotting were performed as described in our previous studies. In brief, cells in 6-well plates (5 × 10^5 cells/well) were lysed in 500 μL of ice-cold lysis buffer (50 mM Tris-HCl at pH 7.5 containing 100 mM NaCl, 5 mM EDTA, 40 mM NaP2O7, 1% Triton X-100, 1 mM dithiothreitol, 200 μM Na3VO4, 100 μM phenylmethylsulfonyl fluoride, 2 μg/mL leupeptin, 4 μg/mL aprotinin, and 0.7 μg/mL pepstatin) and then gently shaken for 30 min. The amount of protein in each sample was determined by detergent compatible (DC) protein assay according to the supplier’s instruction (Bio-Rad, Hercules, CA, USA). Clarified lysates (30 μg protein per sample) were resolved on 12% SDS-polyacrylamide gels and then transferred to nitrocellulose membranes (Westborough, MA, USA). Resolved proteins were detected by specific primary antibodies and horseradish peroxidase-conjugated secondary antisera. The level of β-actin was determined as an internal control. Immunoblots were visualized by chemiluminescence with the WesternBright ECL reagents from Advansta (San Jose, CA, USA). Chemiluminescence signals were then detected by ChemiDoc imaging systems (Bio-Rad, Hercules, CA, USA) with the subsequent band densities quantified by ImageJ (https://imagej.net/ij/) analysis software (National Institutes of Health, MD, USA). All primary antibodies which specifically recognize B1R, B2R, ERK, p-ERK, p38, p-p38, JNK, p-JNK, STAT3, p-STAT3, and β-actin were applied at 1:1000 dilution for Western blotting.

STAT3 in SK-N-MC cells = experiment: STAT3 Tyr705 phosphorylation in SK-N-MC by conditioned media from agonist-treated U87-MG; format: cell-based, human; details: U87-MG treated with bombesin 1 μM, bradykinin 1 μM or histamine 10 μM, 24 h; media on SK-N-MC 15 min
Procedure: These conditioned media were either immediately applied to SK-N-SH/SK-N-MC cells (80–100% confluence) in 6-well plates for 15 min, or subjected to heat treatment on a 96 °C heat block for 5 min, and then cooled to 37 °C before they were applied to the SK-N-SH/SK-N-MC cells for 15 min. […] For the SK-N-MC-derived conditioned media, SK-N-MC cells (80–100% confluence) in a 10 cm culture dish were serum-starved in 10 mL of MEM (without FBS), with 1 mL of the resulting conditioned medium being collected at indicated time points (15 min, 1 h, 3 h, 6 h). Simultaneously, U87-MG cells (80–100% confluence) in 12-well plates were serum-starved in MEM for 6 h, followed by pretreatment of […] (5 μM, 15 min), and then challenged with the SK-N-MC-derived conditioned media (mentioned above) for 10 min before cell lysis. […]
SDS-PAGE and Western blotting were performed as described in our previous studies. […] The amount of protein in each sample was determined by detergent compatible (DC) protein assay according to the supplier’s instruction (Bio-Rad, Hercules, CA, USA). […] Resolved proteins were detected by specific primary antibodies and horseradish peroxidase-conjugated secondary antisera. The level of β-actin was determined as an internal control.

## N[C@@H](CCC(=O)O)C(=O)O [glutamate]
Primary astrocytes; 1 μM agonist
  intracellular Ca2+ mobilization: significantly stimulated Ca^2+ mobilization

## CCCCCCCCCCCCC/C=C/[C@@H](O)[C@@H](N)COP(=O)(O)O [sphingosine-1-phosphate]
U87-MG cells; 1 μM agonist
  intracellular Ca2+ response: significantly stimulated intracellular Ca^2+ responses
Primary astrocytes; 1 μM agonist
  intracellular Ca2+ mobilization: significantly stimulated Ca^2+ mobilization
1321-N1 cells; 1 μM agonist
  intracellular Ca2+ response: significantly stimulated intracellular Ca^2+ responses

## COc1ccc2[nH]cc(CCNC(C)=O)c2c1 [melatonin]
[1]
  IL-6 release: induced the release of both LIF and IL-6
  LIF release: induced the release of both LIF and IL-6

## CCCCC[C@H](O)/C=C/[C@H]1[C@H](O)CC(=O)[C@@H]1C/C=C\CCCC(=O)O [prostaglandin E2]
Primary astrocytes; 1 μM agonist
  intracellular Ca2+ mobilization: significantly stimulated Ca^2+ mobilization

## endothelin
Primary astrocytes; 100 nM agonist
  intracellular Ca2+ mobilization: significantly stimulated Ca^2+ mobilization
1321-N1 cells; 100 nM agonist
  intracellular Ca2+ response: elicited Ca^2+ responses in 1321-N1 cells

## C[S+]([O-])c1ccc(-c2nc(-c3ccncc3)c(-c3ccc(F)cc3)[nH]2)cc1 (centres unmarked) [SB203580]
[2]
  inhibition of bradykinin-induced LIF secretion by protein kinase inhibitors: found to require

## CN(C)S(=O)(=O)c1ccc2c(c1)/C(=C/c1cc3c([nH]1)CCCC3)C(=O)N2 [SU6656]
[2]
  inhibition of bradykinin-induced LIF secretion by protein kinase inhibitors: found to require

## Nc1ncnc2c1ncn2[C@@H]1O[C@H](COP(=O)(O)OP(=O)(O)OP(=O)(O)O)[C@@H](O)[C@H]1O [ATP]
U87-MG cells; 1 μM agonist
  intracellular Ca2+ response: effective in U87-MG cells
Primary astrocytes; 1 μM agonist
  intracellular Ca2+ mobilization: significantly stimulated Ca^2+ mobilization
1321-N1 cells; 1 μM agonist
  intracellular Ca2+ response: did not respond to ATP for triggering Ca^2+ transients

## interleukin-6 [IL-6]
[3]
  STAT3 phosphorylation: significant stimulatory phosphorylation of STAT3

## NCCc1c[nH]c2ccc(O)cc12 [serotonin]
U87-MG cells; 10 μM agonist
  intracellular Ca2+ response: could not trigger the activity
1321-N1 cells; 10 μM agonist
  intracellular Ca2+ response: could not trigger the activity

## neurotensin
U87-MG cells; 1 μM agonist
  intracellular Ca2+ response: could not trigger the activity
1321-N1 cells; 1 μM agonist
  intracellular Ca2+ response: could not trigger the activity

## angiotensin II (DRVYIHPF; Angiotensin-2; UniProt P01019 25-32, looked up)
U87-MG cells; 1 μM agonist
  intracellular Ca2+ response: effective in U87-MG cells

## Cn1c2ccccc2c2c3c(c4c5ccccc5n(CCC#N)c4c21)CNC3=O [Go6976]
[2]
  inhibition of bradykinin-induced LIF secretion by protein kinase inhibitors: Partial inhibition of LIF secretion

## bombesin
U87-MG cells; 1 μM agonist
  intracellular Ca2+ response: significantly stimulated intracellular Ca^2+ responses
Primary astrocytes; 1 μM agonist
  intracellular Ca2+ mobilization: significantly stimulated Ca^2+ mobilization
STAT3 in SK-N-MC cells
  STAT3 Tyr705 phosphorylation by conditioned media: sometimes failed to induce STAT3 phosphorylation
1321-N1 cells; 1 μM agonist
  intracellular Ca2+ response: significantly stimulated intracellular Ca^2+ responses

## neuromedin U25 (FRVDEEFQSPFASQSRGYFLFRPRN; ends and bridges not checked; UniProt P48645 142-166, looked up)
U87-MG cells; 1 μM agonist
  intracellular Ca2+ response: effective in U87-MG cells

## Oc1c2ccccc2c2c3c(cccc13)N=N2 [SP600125]
[2]
  inhibition of bradykinin-induced LIF secretion by protein kinase inhibitors: partially inhibited bradykinin-induced LIF secretion

## COc1cccc(-c2cc(=O)c3ccccc3o2)c1N [PD98059]
[2]
  inhibition of bradykinin-induced LIF secretion by protein kinase inhibitors: found to require

## oxytocin
U87-MG cells; 1 μM agonist
  intracellular Ca2+ response: effective in U87-MG cells
Primary astrocytes; 1 μM agonist
  intracellular Ca2+ mobilization: significantly stimulated Ca^2+ mobilization

## CNC[C@H](O)c1cccc(O)c1 [phenylephrine]
Primary astrocytes; 10 μM agonist
  intracellular Ca2+ mobilization: significantly stimulated Ca^2+ mobilization

## neurokinin B
Primary astrocytes; 1 μM agonist
  intracellular Ca2+ mobilization: significantly stimulated Ca^2+ mobilization
